Where two headings read alike, the source gives them in different places.
How the values were obtained:
human PARP1 = target: T1, human PARP1 (Homo sapiens, UniProt P09874); assay: PARP inhibitor assay (HT Fluorescent Homogeneous PARP Inhibition Assay Kit); assay type: biochemical; conditions: score
T1 construct: purchased Trevigen
Procedure: (§1) The assay was performed with the HT Fluorescent Homogeneous PARP Inhibition Assay Kit (Trevigen), following manufacturer's instructions. Briefly, nicotinamide adenine dinucleotide, human PARP1 and activated-DNA solution was added onto a 96-well plate. 54 repurchased small molecules, at 10 μM final concentration, were introduced onto the 96-well assay plate and incubated in a humid chamber at room temperature for 30 min in dark. Cycling mixture, with resazurin and cycling enzyme diaphorase, was then added and incubated further for 1 hr in dark. Reaction was terminated by adding the stopping buffer.
as §1, with “(Trevegen),” for “(Trevigen),”, “stopped” for “terminated”

NRF2 [1] = assay: qPCR analysis of NRF2-regulated genes; assay type: cell-based, human; conditions: for fold induction at 10 µM: Homo sapiens
How it was run: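 Expression of HMOX1, NQO1, GCLC and GSTM1 measured by qPCR relative to B2M, PPIA and GAPDH. Cells were WI-38 fibroblasts exposed 24 hrs to 10 μM compound, with RNA and cDNA prepared via Cells-to-Ct. Where stated, cells were first transfected 36 hrs with FOXO3 or NRF2 siRNA at 10 nM.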

NRF2 [2] = assay: in vitro; assay type: cell-based, human; conditions: for viability of non-stressed cells, reduced by: human, 24 h
LC3A/B puncta = assay: Autophagy induction analysis (LC3A/B puncta immuno-staining); assay type: cell-based, human; conditions: for Assay 15: Potential autophagy induction by LC3A/B puncta assays: 10 uM & 20 uM, YES/NO; for Exp. 1, induction of LC3A/B puncta (Up), total intensity normalized by total number of nuclei in the fields / Exp. 1, normalized change of nuclei numbers (Less cells): Exp. 1, 10 μM, 10X objective; for Exp. 1, induction of LC3A/B puncta (Up), total intensity normalized by total number of nuclei in the fields / Exp. 1, normalized change of nuclei numbers (Less cells) / Exp. 2, normalized change of nuclei numbers (Less cells): WI-38 cells; for Exp. 2, normalized change of nuclei numbers (Less cells): 20X objective, lysosomal LAMP co-staining
Procedure: Immuno-staining of LC3A/B was performed, following a standard protocol. Briefly, WI-38 cells were treated with small molecules for 24 hrs, and then processed and incubated with primary antibody (Cell Signaling, rabbit anti-LC3A/B, 1:100) overnight at 4° C. Next day, samples were processed and incubated with fluorophore-conjugated secondary antibody and further incubated with DAPI dye. Images were collected on the INCell Analyzer 2000 (Experiment 1: 10× objective; Experiment 2: 20× objective) and analyzed with the Developer Toolbox. For Experiment 2, lysosomal-associated membrane protein 2 (LAMP2) was also counter-stained to identify the LC3A/B puncta that colocalize with lysosome and the data were analyzed by the MetaXpress software (Molecular Devices, version 5.1). The intensity of total (Exp. 1) or LAMP2-colocalized LC3A/B puncta (Exp. 2) was normalized the total numbers nuclei in the fields.
These assays were performed, following the same procedures to analyze DNA-damage markers. WI-38 cells were incubated with small molecules for 24 hrs, and then processed and incubated with primary antibody (rabbit anti-LC3A/B, 1:100) overnight at 4 C. The next day, samples were processed and incubated with fluorophore-conjugated secondary antibody and further incubated with DAPI dye. Images were collected on an INCell Analyzer 2000 and analyzed with the Developer software. Total LC3A/B puncta intensity was normalized the total numbers of DAPI-positive nuclei.

[3] = 24 h, Assay 12(o), at 10 uM, qPCR, read-out: Induction of NRF2-regulated genes: GCLC normalized fold-change
[4] = 24 h, Assay 12(o), at 10 uM, qPCR, read-out: Induction of NRF2-regulated genes: GSTM1 normalized fold-change
[5] = rounded fold change, WI-38 cells, 10 μM, 24 hrs (RP29 for Gr-4D), read-out: Summary of effects on NRF2-regulated genes: GSTM1
[6] = rounded fold change, WI-38 cells, 10 μM, 24 hrs (RP29 for Gr-4D), read-out: Summary of effects on NRF2-regulated genes: NQO1
[7] = rounded fold change, WI-38 cells, 10 μM, 24 hrs, read-out: Summary of effects on NRF2-regulated genes: GCLC
[8] = 10 μM, 24 hrs, WI-38 cells, qPCR, normalized to B2M, n = 4, read-out: GCLC expression, normalized fold change (NRF2-regulated gene)
[9] = 10 μM, 24 hrs, WI-38 cells, qPCR, normalized to B2M, n = 4, read-out: GSTM1 expression, normalized fold change (NRF2-regulated gene)
[10] = 10 μM, 24 hrs, WI-38 cells, qPCR, normalized to B2M, n = 4, read-out: NQO1 expression, normalized fold change (NRF2-regulated gene)
[11] = WI-38 cells, 10 μM, 24 hrs, n=4, qPCR normalized by B2M, read-out: GCLC Normalized fold change
[12] = WI-38 cells, 10 μM, 24 hrs, n=4, qPCR normalized by B2M, read-out: GSTM1 Normalized fold change
[13] = WI-38 cells, 10 μM, 24 hrs, n=4, qPCR normalized by B2M, read-out: HMOX1 Normalized fold change
[14] = WI-38 cells, 10 μM, 24 hrs, n=4, qPCR normalized by B2M, read-out: NQO1 Normalized fold change
[15] = 24 h, Assay 12(o), at 10 uM, qPCR, read-out: Induction of NRF2-regulated genes: NQO1 normalized fold-change
[16] = 24 h, Assay 12(o), at 10 uM, qPCR, read-out: Induction of NRF2-regulated genes: HMOX1 normalized fold-change

T1 sequence (P09874 whole entry): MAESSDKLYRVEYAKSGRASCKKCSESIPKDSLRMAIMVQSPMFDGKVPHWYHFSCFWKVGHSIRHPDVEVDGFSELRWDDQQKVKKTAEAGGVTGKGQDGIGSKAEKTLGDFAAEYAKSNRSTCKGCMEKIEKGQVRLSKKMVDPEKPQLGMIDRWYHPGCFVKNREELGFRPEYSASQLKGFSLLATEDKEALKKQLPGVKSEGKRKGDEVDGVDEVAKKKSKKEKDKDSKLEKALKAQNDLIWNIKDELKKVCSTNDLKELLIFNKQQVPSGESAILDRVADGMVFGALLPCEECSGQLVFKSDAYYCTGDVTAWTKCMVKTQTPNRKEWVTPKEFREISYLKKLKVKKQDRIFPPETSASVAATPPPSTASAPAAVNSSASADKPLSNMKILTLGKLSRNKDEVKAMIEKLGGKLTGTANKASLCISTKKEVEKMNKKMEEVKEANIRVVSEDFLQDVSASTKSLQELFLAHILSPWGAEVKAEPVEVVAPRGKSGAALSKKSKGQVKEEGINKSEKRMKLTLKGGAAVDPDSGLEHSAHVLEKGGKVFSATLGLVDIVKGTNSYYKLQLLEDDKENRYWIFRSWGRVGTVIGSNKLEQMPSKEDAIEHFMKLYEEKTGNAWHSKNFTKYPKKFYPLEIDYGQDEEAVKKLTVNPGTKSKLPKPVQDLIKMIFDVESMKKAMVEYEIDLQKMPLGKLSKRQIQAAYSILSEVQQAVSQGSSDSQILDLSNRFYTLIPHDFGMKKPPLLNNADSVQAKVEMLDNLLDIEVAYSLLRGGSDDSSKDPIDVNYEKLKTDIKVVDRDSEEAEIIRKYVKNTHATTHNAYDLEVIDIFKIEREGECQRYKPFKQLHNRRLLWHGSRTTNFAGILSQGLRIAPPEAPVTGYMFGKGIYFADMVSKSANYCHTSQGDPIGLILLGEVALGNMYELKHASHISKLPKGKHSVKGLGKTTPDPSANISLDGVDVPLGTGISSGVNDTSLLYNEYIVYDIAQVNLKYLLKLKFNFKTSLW

Row | SMILES | L = PARP inhibition (human PARP1) | F = Potential NRF2 Activation (NRF2 [1]; 2-point score) | fold induction at 10 µM (NRF2 [1]; [3]) | fold induction at 10 µM (NRF2 [1]; [4]) | fold induction at 10 µM (NRF2 [1]; [5]) | fold induction at 10 µM (NRF2 [1]; [6]) | fold induction at 10 µM (NRF2 [1]; [7]) | fold induction at 10 µM (NRF2 [1]; [8]) | fold induction at 10 µM (NRF2 [1]; [11]) | fold induction at 10 µM (NRF2 [1]; [12]) | fold induction at 10 µM (NRF2 [1]; [13]) | fold induction at 10 µM (NRF2 [1]; [14]) | F = Potential NRF2 Activation (NRF2 [1]; summary score) | J = NRF2-dependency for H2O2-resistance (NRF2 [2]; score) | J = NRF2-dependency for H2O2-resistance (NRF2 [2]; summary score) | Exp. 1, induction of LC3A/B puncta (Up), total intensity normalized by total number of nuclei in the fields (LC3A/B puncta) | Exp. 2, normalized change of nuclei numbers (Less cells) (LC3A/B puncta; Exp. 2, 10 μM) | Exp. 2, normalized change of nuclei numbers (Less cells) (LC3A/B puncta; Exp. 2, 20 μM) | H = Potential Autophagy Induction (LC3A/B puncta; score) | H = Potential Autophagy Induction (LC3A/B puncta; summary score) | other results
1 | NS(=O)(=O)c1ccc(NC(=O)c2ccc([N+](=O)[O-])o2)cc1 [Gr-1A] | 0 | 2 | 1.48 | 1.45 | 1.45 | 1.79 | 1.61 | 1.61 | 1.61 | 2.53 | 0.973 | 1.79 | 0 | 1 | 1 | p < 0.001; Up, 1876%, | Less cells, 66%, | Less cells, 57%, | 1 | 1 | fold induction at 10 µM (NRF2 [1]; 10 μM, 24 hrs, WI-38, read-out: Expression of at least two NRF2 target genes): > 1.5; fold induction at 10 µM (NRF2 [1]; [9]): 1.45; fold induction at 10 µM (NRF2 [1]; [10]): 1.79; Survival of NRF2 siRNA-transfected cells in the absence of H2O2 (NRF2 [2]): could reduce the survival; NRF2-dependency for H2O2-resistance, at 10 uM - with H2O2, 2nd experiment (NRF2 [2]; 10 uM, experiment 2 (2nd), with H2O2): 2nd, partial.; NRF2-dependency for H2O2-resistance, 2nd experiment (NRF2 [2]; 10 uM, with H2O2, NRF2 knockdown in WI-38 cells, YES = resistance reduced by at least 50%, partial = 25% to 50%): partial; Assay 17: NRF2-dependency for H2O2-resistance (NRF2 [2]; 10 uM, YES/NO): YES; NRF2-dependency of H2O2-resistance (NRF2 siRNA knockdown) (NRF2 [2]; at least 2 of 3 independent experiments): significantly attenuate; viability of non-stressed cells, reduced by (NRF2 [2]; 10 uM): by 30%); Assay 15: Potential autophagy induction by LC3A/B puncta assays (LC3A/B puncta): YES; Exp. 1, normalized change of nuclei numbers (Less cells) (LC3A/B puncta): Less cells, 55%,
2 | O=C(Nc1cc(C(F)(F)F)ccc1Cl)c1ccc([N+](=O)[O-])o1 [Gr-1B] | 0 | 0 | 1.24 | 1.44 | 2 | 1.31 |  |  | 1.44 | 2 | 1.31 | 1.31 | 0 | 0 | 0 | No induction |  |  | 0 | 0 | fold induction at 10 µM (NRF2 [1]; [15]): 1.19; fold induction at 10 µM (NRF2 [1]; [9]): 2; fold induction at 10 µM (NRF2 [1]; [10]): 1.31
3 | CCc1ccccc1NC(=O)c1ccc([N+](=O)[O-])o1 [Gr-1C] | 0 | 0 | 1.65 |  |  | 1.46 | 1.82 | 1.82 | 1.82 | 1.77 | 1.32 | 1.46 | 0 | 0 | 0 | p < 0.01; Up, 956%, | Less cells, 58%, | Less cells, 41%, | 1 | 1 | Induction of at least two NRF2-regulated genes (HMOX1, NQO1, GCLC, GSTM1) (NRF2 [1]; 10 μM, 24 hrs, WI-38): could induce expression of at least two genes; fold induction at 10 µM (NRF2 [1]; [15]): 1.33; fold induction at 10 µM (NRF2 [1]; [10]): 1.46; Assay 15: Potential autophagy induction by LC3A/B puncta assays (LC3A/B puncta): YES; Exp. 1, normalized change of nuclei numbers (Less cells) (LC3A/B puncta): Less cells, 70%,
4 | O=C(Nc1cccc(Cl)c1)c1ccc([N+](=O)[O-])o1 [Gr-1D] | 0 | 0 |  |  |  |  |  |  | 1.08 | 1.17 | 4.68 | 0.878 | 0 | 0 | 0 | p < 0.05; Up, 617%, | Less cells, 67%, | Less cells, 73%, | 1 | 1 | fold induction at 10 µM (NRF2 [1]; rounded fold change, WI-38 cells, 10 μM, 24 hrs (RP11 for Gr-1D, RP29 for Gr-4D), read-out: Summary of effects on NRF2-regulated genes: HMOX1): 4.68; fold induction at 10 µM (NRF2 [1]; 10 μM, 24 hrs, WI-38 cells, qPCR, normalized to B2M, n = 4, read-out: HMOX1 expression, normalized fold change (NRF2-regulated gene)): 4.68; Summary of effects on NRF2-regulated genes: HMOX1, second run (NRF2 [1]; run RP42 (Gr-1D) / RP52 (Gr-4D), WI-38 cells, 10 μM): 5.86,; Summary of effects on NRF2-regulated genes: GCLC, second run (NRF2 [1]; run RP42 (Gr-1D), WI-38 cells, 10 μM): 0.79,; Assay 15: Potential autophagy induction by LC3A/B puncta assays (LC3A/B puncta): YES; Exp. 1, normalized change of nuclei numbers (Less cells) (LC3A/B puncta): Less cells, 67%,
5 | O=C(Nc1cccc(C(F)(F)F)c1)c1ccc([N+](=O)[O-])o1 [Gr-1E] | 0 | 0 | 1.36 |  | 2.11 |  |  |  | 1.55 | 2.11 | 1.06 | 1.11 | 0 | 0 | 0 | Up, 260%, p < 0.01 | Less cells, 75%, | Less cells, 58%, | 0 | 0 | fold induction at 10 µM (NRF2 [1]; [16]): 0.79; fold induction at 10 µM (NRF2 [1]; [9]): 2.11
6 | Cc1ccc(NC(=O)c2ccc([N+](=O)[O-])o2)cc1C [Gr-1F] | 0 | 0 | 1.35 | 1.28 |  |  | 1.62 | 1.62 | 1.62 | 1.72 | 1.09 | 1.11 | 0 | 0 | 0 | Up, 151%, p < 0.01 | Less cells, 82%, | Less cells, 73%, | 0 | 0 | fold induction at 10 µM (NRF2 [1]; [16]): 0.82; viability of non-stressed cells, reduced by (NRF2 [2]; 10 uM): by 50%)

From patent US11413278B2, “Compounds and methods for promoting stress resistance” (priority 2015, dated 2022)
